Experimental data as given in patent publication US5632983A, “Method for treating secondary immunodeficiency” (University of South Florida, priority 1994, dated 1997).
No end group written: not given here.

Legend:
thymocytes = assay: Proliferative response (3H-thymidine) of thymocytes in vitro after in vivo treatment, hydrocortisone induced thymic involution in aged mice
Method: (§1) The model of hydrocortisone induced thymic involution in aged mice was used unless otherwise indicated (Hadden et al., 1992b).
(§2) Female BALB/c (Life Science, St. Petersburg, Fla.) aged retired breeder mice (8-9 months) whose thymuses had begun to involute were employed in in vivo tests. Mice were weight matched and randomly pooled in groups of five. Animals were fed standard laboratory diets with drinking water ad lib. All mice, with exception of a control group, were treated intraperitoneally (i.p.) with hydrocortisone (5 mg/mouse in 0.1 ml 0.9% sodium chloride) for two consecutive days to induce a chemical thymectomy and reduction of spleen weight.
(§3) Each treatment group had five (5) animals and each experiment was repeated 2-5 times. Treatment was initiated intraperitoneally (i.p.), on Day 3 and continued once per day for a total of five (5) days. Treatment groups were injected with one of the following in vivo treatments as indicated in the text:
(§4) On day 8, the mice were weighed, sacrificed by cervical dislocation, and their spleens and thymuses removed and weighed. The organs were minced, the residual erythrocytes were lysed using ammonium chloride (Mishell and Shiigi, "Selected Methods in Cellular Immunology", 1981), and the cells counted.
(§5) The proliferative response of the cells to various substances was then determined. A sample of cells was prepared for cell culture at 37° C., 5% CO2 in RPMI 1640 medium with 5% fetal bovine serum, penicillin (100 U/ml), streptomycin (100 μg/ml) and 2-mercaptoethanol (2×10^-5 M). The cells were plated in 0.2 ml microwell plates in quadruplicate at a concentration of 1.5×10^6 /ml and incubated for 72 hours with one of the following as indicated in the text:
(§6) To measure DNA synthesis, the culture was terminated with an 18 hours pulse of tritiated thymidine (^3 H-Thymidine; NEN, Boston, Mass.; specific activity 6.7 Ci/mM), harvested with a multiple automatic sample harvester and processed for liquid scintillation counting. The results were expressed as arithmetic mean of cpm from four samples. In order to simplify the representation of data obtained with different animals, the results were pooled and calculated together and in some cases expressed as a ratio to control±SEM.
(§7) In a series of experiments, mice with involuted thymuses were treated in vivo with NCM, Thymosin α1, Thymosin fraction V, combinations of these factors, and saline or media controls. The spleens and thymuses were removed, the cells were tested for cell proliferation responses to stimulation in vitro with the interleukins (IL1, IL2, NCM) or with mitogens (PHA; ConA).

[1] = Thymus weight in hydrocortisone-treated aged mice; type: in vivo; conditions: NCM 50 U of IL-2 per mouse/day; Thymosin α1 5 or 20 microgram/mouse/day (pooled); i.p. 5 days, day 8
Method: as §2, §3, §4
(§8) Animals, hydrocortisone treatment, and experimental injections were as described in the general methods. The NCM was injected at 50 U of IL-2 per mouse/day. The Thymosin α1 (T alpha-1 or Tα1) was injected at 5 or 20 microgram/mouse/day.

splenocytes = assay: Proliferative response (3H-thymidine) of splenocytes in vitro after in vivo treatment, hydrocortisone induced thymic involution in aged mice
Method: as §1, §2, §3, §4, §5, §6, §7

[2] = Spleen weight in hydrocortisone-treated aged mice; type: in vivo; conditions: NCM 50 U of IL-2 per mouse/day; Thymosin α1 5 or 20 microgram/mouse/day (pooled); i.p. 5 days, day 8
Method: as §2, §3, §4, §8

Thymosin α1 (SDAAVDTSSEITTKDLKEKKEVVEEAEN; not fully specified; ends and bridges not checked; UniProt P01252 2-29, looked up) [28 amino acid peptide initially extracted from bovine thymus and later synthesized]
dose of optimal effects on thymocyte responses to interleukins and mitogen (thymocytes; FIG. 1, dose response 0.2 to 20 μg/animal/day in vivo): 5 μg/mouse | thymocyte responses in vitro to media, rIL-1, rIL-2 and NCM (thymocytes; FIG. 3, in vivo i.p. once per day for 5 days, Thymosin α1 5 μg/mouse, NCM 50 units IL-2 equivalence): increased many of the responses | thymocyte responses to mitogens PHA and ConA (thymocytes; FIG. 5, in vivo treatments as in FIG. 3): significantly augmented both responses | thymocyte responses to rIL-1, IL-2, NCM or ConA (thymocytes; FIGS. 7 and 9, ratio to saline treated control, Thymosin α1 5 μg/mouse/day, TF5 100 μg/mouse/day, NCM 50 units): augmented all of the responses | THYMUS WEIGHT (mg) Mean ± S.E.M. [1]: 25.75 ± 4.45 mg | dose of optimal effects on splenocyte responses to interleukins and mitogen (splenocytes; FIG. 2, dose response 0.2 to 20 μg/animal/day in vivo): 5 μg/mouse | splenocyte responses in vitro to media, rIL-1, rIL-2 and NCM (splenocytes; FIG. 4, in vivo i.p. once per day for 5 days, Thymosin α1 5 μg/mouse, NCM 50 units IL-2 equivalence): increased many of the responses | splenocyte responses to mitogens PHA and ConA (splenocytes; FIG. 6, in vivo treatments as in FIG. 3): significantly augmented both responses | splenocyte responses to rIL-1, IL-2, NCM or ConA (splenocytes; FIGS. 8 and 10, ratio to saline treated control, Thymosin α1 5 μg/mouse, TF5 100 μg/mouse, NCM 50 units): augmented all of the responses | SPLEEN WEIGHT (mg) Mean ± S.E.M. [2]: 127.66 ± 5.78 mg
